Measurements from patent US12233057B2, “Small molecules for inhibiting chemokine activity and/or cancer cells growth” (AlonBio Ltd., priority 2015, dated 2025).

Experiments:
MIP3a = MIP3a (Homo sapiens, UniProt P78556); test: Migration assay: CD4+ T-cells toward MIP3a (Transwell); format: cell-based; conditions: BKT300 at 78% purity, 50 μg/ml
Description: 600 μl of RPMI medium was added to the lower chambers of Transwell® transmigration plates, supplemented with 2 μg/ml of MIP3a, 100 ng/ml of SDF-1 or 10 ng/ml of MCP-1. The tested small molecule was added to the lower chambers at the indicated concentration, except in control samples. The MIP3a, SDF-1 or MCP-1 was incubated with the small molecule for 30 minutes at room temperature before the initiation of the migration assay. Following 30 minutes of incubation 2×10^5 immune cells were added to the upper chambers of the transmigration plates in a total volume of 100 μl. Cells which migrated within 3 hours to the bottom chamber of the Transwell® plates were counted using a FACScalibur™ flow cytometer.
To evaluate migration toward MIP3a, peripheral blood mononuclear cells (PBMCs) were isolated from heparinized venous blood by centrifugation over Ficoll Histopaque® 1077. CD4+ T cells were further isolated with RosetteSep™ human CD4+ T-cell Enrichment cocktail (StemCell Technologies Inc.), according to the manufacturer's instructions.
The 18 compounds uncovered by the screening assay were further tested for their ability, at final concentrations of 10 and 50 μg/ml, to inhibit the migration of human CD4+ T-cells toward MIP3a; and to inhibit the migration of immune cells in response to MCP-1 and SDF-1, using the procedures described in the Materials and Methods section hereinabove.

CLK4 = CLK4 (Homo sapiens, UniProt Q9HAZ1); test: LanthaScreen europium kinase binding assay; conditions: BKT300 at 78% purity
Description: (§1) In order to further characterize the effect of BKT300 on cell signaling, kinase profiling of BKT300 (at 78% purity) was performed (by the Life Technologies SelectScreen® Biochemical Profiling Lab) using a LanthaScreen® europium kinase binding assay to screen 440 kinases.
(§2) The principle of the LanthaScreen® assay is depicted in FIG. 13. Binding of an Alexa Fluor® conjugate or “tracer” to a kinase is detected by addition of a europium (Eu)-labeled anti-tag antibody. Binding of the tracer and antibody to a kinase results in a high degree of FRET, whereas displacement of the tracer with a kinase inhibitor results in a loss of FRET. The kinase tracers are based on ATP-competitive kinase inhibitors, making them suitable for detection of any compounds that bind to the ATP site. Inhibitors that bind the ATP site include both Type I kinase inhibitors, which bind solely to the ATP site, and Type II inhibitors (e.g., imatinib, sorafenib, BIRB-796), which bind to both the ATP site and a second site often referred to as the allosteric site.

KIT T670E = KIT T670E (Homo sapiens, UniProt P10721, T670E); test: LanthaScreen europium kinase binding assay; conditions: BKT300 at 78% purity
Description: as §1, §2

STK17A (DRAK1) = STK17A (DRAK1) (Homo sapiens, UniProt Q9UEE5); test: LanthaScreen europium kinase binding assay; conditions: BKT300 at 78% purity
Description: as §1, §2

STK38 (NDR) = STK38 (NDR) (Homo sapiens, UniProt Q15208); test: LanthaScreen europium kinase binding assay; conditions: BKT300 at 78% purity
Description: as §1, §2

DYRK2 = DYRK2 (Homo sapiens, UniProt Q92630); test: LanthaScreen europium kinase binding assay; conditions: BKT300 at 78% purity
Description: as §1, §2

TTK = TTK (Homo sapiens, UniProt P33981); test: LanthaScreen europium kinase binding assay; conditions: BKT300 at 78% purity
Description: as §1, §2

MAPK10 (JNK3) = MAPK10 (JNK3) (Homo sapiens, UniProt P53779); test: LanthaScreen europium kinase binding assay; conditions: BKT300 at 78% purity
Description: as §1, §2

CDC7/DBF4 = CDC7/DBF4 (Homo sapiens, UniProt O00311); test: LanthaScreen europium kinase binding assay; conditions: BKT300 at 78% purity
Description: as §1, §2

CDK11 (Inactive) = CDK11 (Inactive) (Homo sapiens, UniProt Q9BWU1); test: LanthaScreen europium kinase binding assay; conditions: BKT300 at 78% purity
Description: as §1, §2

NUAK2 = NUAK2 (Homo sapiens, UniProt Q9H093); test: LanthaScreen europium kinase binding assay; conditions: BKT300 at 78% purity
Description: as §1, §2

MAP4K2 (GCK) = MAP4K2 (GCK) (Homo sapiens, UniProt Q12851); test: LanthaScreen europium kinase binding assay; conditions: BKT300 at 78% purity
Description: as §1, §2

KIT D820E = KIT D820E (Homo sapiens, UniProt P10721, D820E); test: LanthaScreen europium kinase binding assay; conditions: BKT300 at 78% purity
Description: as §1, §2

MAP4K4 (HGK) = MAP4K4 (HGK) (Homo sapiens, UniProt O95819); test: LanthaScreen europium kinase binding assay; conditions: BKT300 at 78% purity
Description: as §1, §2

SGK2 = SGK2 (Homo sapiens, UniProt Q9HBY8); test: LanthaScreen europium kinase binding assay; conditions: BKT300 at 78% purity
Description: as §1, §2

DAPK2 = DAPK2 (Homo sapiens, UniProt Q9UIK4); test: LanthaScreen europium kinase binding assay; conditions: BKT300 at 78% purity
Description: as §1, §2

MYLK (MLCK) = MYLK (MLCK) (Homo sapiens, UniProt Q15746); test: LanthaScreen europium kinase binding assay; conditions: BKT300 at 78% purity
Description: as §1, §2

MAP4K1 (HPK1) = MAP4K1 (HPK1) (Homo sapiens, UniProt Q92918); test: LanthaScreen europium kinase binding assay; conditions: BKT300 at 78% purity
Description: as §1, §2

MELK = MELK (Homo sapiens, UniProt Q14680); test: LanthaScreen europium kinase binding assay
Description: as §1, §2

STK17B (DRAK2) = STK17B (DRAK2) (Homo sapiens, UniProt O94768); test: LanthaScreen europium kinase binding assay; conditions: BKT300 at 78% purity
Description: as §1, §2

EPHA8 = EPHA8 (Homo sapiens, UniProt P29322); test: LanthaScreen europium kinase binding assay; conditions: BKT300 at 78% purity
Description: as §1, §2

DYRK3 = DYRK3 (Homo sapiens, UniProt O43781); test: LanthaScreen europium kinase binding assay; conditions: BKT300 at 78% purity
Description: as §1, §2

MLCK (MLCK2) = MLCK (MLCK2) (Homo sapiens, UniProt Q9H1R3); test: LanthaScreen europium kinase binding assay; conditions: BKT300 at 78% purity
Description: as §1, §2

GRK5 = GRK5 (Homo sapiens, UniProt P34947); test: LanthaScreen europium kinase binding assay; conditions: BKT300 at 78% purity
Description: as §1, §2

ACVRL1 (ALK1) = ACVRL1 (ALK1) (Homo sapiens, UniProt P37023); test: LanthaScreen europium kinase binding assay; conditions: BKT300 at 78% purity
Description: as §1, §2

GRK4 = GRK4 (Homo sapiens, UniProt P32298); test: LanthaScreen europium kinase binding assay; conditions: BKT300 at 78% purity
Description: as §1, §2

TGFBR2 = TGFBR2 (Homo sapiens, UniProt P37173); test: LanthaScreen europium kinase binding assay; conditions: BKT300 at 78% purity
Description: as §1, §2

CDK1/cyclin A2 = CDK1/cyclin A2 (Homo sapiens, UniProt P06493); test: LanthaScreen europium kinase binding assay; conditions: BKT300 at 78% purity
Description: as §1, §2

Sequence of MELK (Q14680 whole entry): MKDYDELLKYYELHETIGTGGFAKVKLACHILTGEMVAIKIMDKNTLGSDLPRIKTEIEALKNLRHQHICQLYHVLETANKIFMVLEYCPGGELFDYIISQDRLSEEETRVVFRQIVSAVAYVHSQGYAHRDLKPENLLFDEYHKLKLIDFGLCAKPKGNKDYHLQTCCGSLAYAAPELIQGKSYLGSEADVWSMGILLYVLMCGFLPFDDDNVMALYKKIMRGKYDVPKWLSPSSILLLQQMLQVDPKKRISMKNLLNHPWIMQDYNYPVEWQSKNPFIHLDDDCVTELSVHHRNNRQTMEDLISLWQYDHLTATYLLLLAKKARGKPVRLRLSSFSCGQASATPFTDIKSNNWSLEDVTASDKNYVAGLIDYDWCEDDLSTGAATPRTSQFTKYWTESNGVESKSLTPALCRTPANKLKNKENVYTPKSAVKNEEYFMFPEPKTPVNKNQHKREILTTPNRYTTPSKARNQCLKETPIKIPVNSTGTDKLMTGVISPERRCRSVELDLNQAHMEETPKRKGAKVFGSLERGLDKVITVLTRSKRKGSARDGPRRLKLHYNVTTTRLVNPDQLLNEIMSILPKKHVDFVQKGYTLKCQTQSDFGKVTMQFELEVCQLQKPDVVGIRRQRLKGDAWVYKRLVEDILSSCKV
Sequence of EPHA8 (P29322 28-1005): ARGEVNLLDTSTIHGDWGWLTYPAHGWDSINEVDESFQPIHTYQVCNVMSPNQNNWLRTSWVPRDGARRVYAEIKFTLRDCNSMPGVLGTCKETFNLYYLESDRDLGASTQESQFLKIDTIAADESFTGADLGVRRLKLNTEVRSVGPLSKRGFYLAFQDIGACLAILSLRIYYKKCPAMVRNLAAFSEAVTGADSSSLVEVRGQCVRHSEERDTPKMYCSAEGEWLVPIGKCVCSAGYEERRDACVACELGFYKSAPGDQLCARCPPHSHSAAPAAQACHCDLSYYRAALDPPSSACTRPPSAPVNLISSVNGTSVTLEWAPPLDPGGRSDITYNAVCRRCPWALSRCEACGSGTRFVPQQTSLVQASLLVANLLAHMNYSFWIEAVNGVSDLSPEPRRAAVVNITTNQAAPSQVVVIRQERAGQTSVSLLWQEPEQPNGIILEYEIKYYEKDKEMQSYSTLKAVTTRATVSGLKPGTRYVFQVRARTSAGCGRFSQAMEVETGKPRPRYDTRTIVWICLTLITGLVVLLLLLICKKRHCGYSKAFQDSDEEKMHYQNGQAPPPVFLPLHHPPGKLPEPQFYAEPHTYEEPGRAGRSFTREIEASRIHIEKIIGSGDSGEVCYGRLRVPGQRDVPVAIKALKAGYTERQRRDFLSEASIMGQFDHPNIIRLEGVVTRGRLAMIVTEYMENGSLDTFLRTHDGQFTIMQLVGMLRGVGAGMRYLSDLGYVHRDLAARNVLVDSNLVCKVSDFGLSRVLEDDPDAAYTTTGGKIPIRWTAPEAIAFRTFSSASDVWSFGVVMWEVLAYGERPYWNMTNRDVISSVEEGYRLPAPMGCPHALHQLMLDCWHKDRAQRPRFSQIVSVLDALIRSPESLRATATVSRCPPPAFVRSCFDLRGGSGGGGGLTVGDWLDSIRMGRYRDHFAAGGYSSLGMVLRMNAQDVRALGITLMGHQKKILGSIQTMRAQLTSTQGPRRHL
Sequence of CDC7/DBF4 (O00311 whole entry): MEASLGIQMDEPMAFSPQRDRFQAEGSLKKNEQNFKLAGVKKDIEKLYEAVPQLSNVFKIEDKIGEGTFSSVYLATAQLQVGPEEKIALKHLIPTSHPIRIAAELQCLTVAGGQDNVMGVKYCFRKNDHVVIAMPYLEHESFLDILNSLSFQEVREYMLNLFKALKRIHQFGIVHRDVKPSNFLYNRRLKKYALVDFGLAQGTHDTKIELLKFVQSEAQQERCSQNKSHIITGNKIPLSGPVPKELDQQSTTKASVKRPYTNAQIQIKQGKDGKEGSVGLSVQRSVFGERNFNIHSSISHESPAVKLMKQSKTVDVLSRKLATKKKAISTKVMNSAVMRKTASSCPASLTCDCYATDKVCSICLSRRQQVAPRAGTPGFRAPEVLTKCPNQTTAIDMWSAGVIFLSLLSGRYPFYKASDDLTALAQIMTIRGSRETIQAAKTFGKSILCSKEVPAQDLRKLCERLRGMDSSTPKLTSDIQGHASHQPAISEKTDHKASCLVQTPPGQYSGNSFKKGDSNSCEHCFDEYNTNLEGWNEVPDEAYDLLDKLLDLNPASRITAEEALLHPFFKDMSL
Sequence of CDC7/DBF4 (Q9UBU7 whole entry partner): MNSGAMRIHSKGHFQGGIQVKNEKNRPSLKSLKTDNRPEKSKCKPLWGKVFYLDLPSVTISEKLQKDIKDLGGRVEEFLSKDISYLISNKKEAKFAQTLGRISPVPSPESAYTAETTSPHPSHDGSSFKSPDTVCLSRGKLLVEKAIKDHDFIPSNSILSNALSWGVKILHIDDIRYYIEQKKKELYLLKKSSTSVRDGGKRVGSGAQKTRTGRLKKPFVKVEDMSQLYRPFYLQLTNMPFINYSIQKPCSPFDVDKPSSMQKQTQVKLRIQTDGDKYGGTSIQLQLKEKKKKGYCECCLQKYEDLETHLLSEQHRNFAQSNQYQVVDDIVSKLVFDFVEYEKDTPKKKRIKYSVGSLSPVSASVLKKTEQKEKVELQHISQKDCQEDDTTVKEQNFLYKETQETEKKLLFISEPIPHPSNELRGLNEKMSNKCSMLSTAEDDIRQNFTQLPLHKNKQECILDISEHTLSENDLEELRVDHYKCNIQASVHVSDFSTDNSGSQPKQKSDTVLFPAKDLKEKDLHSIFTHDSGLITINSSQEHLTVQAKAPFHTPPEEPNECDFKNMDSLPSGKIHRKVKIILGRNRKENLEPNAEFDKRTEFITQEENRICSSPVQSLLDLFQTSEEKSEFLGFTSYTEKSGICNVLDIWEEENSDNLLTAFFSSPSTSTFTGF
Sequence of STK17B (DRAK2) (O94768 whole entry): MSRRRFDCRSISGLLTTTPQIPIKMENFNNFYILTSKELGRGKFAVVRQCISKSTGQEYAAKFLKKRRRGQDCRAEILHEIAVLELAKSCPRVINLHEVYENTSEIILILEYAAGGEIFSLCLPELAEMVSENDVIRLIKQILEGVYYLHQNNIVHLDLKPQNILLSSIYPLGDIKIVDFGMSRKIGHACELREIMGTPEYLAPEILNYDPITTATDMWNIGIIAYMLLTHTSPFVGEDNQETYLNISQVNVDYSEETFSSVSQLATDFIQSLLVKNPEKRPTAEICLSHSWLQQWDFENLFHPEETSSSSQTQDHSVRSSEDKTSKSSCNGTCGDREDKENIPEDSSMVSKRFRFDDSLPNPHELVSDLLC
Sequence of DYRK2 (Q92630 whole entry): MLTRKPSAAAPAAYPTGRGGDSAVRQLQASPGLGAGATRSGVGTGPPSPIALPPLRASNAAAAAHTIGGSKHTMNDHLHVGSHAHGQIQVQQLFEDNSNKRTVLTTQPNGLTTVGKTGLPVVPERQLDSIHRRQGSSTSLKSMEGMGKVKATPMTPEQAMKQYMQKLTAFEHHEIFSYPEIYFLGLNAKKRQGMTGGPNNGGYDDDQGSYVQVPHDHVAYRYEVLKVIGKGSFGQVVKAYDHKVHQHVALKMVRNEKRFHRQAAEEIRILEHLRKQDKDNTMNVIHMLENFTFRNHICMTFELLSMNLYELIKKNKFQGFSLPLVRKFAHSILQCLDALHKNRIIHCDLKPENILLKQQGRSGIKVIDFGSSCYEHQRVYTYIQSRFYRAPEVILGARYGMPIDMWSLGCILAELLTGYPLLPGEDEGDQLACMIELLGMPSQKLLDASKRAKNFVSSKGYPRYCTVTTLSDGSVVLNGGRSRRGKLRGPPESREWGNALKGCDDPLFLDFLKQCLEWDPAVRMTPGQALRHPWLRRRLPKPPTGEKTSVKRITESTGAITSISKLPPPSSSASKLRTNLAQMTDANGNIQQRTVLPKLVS
Sequence of GRK4 (P32298 whole entry): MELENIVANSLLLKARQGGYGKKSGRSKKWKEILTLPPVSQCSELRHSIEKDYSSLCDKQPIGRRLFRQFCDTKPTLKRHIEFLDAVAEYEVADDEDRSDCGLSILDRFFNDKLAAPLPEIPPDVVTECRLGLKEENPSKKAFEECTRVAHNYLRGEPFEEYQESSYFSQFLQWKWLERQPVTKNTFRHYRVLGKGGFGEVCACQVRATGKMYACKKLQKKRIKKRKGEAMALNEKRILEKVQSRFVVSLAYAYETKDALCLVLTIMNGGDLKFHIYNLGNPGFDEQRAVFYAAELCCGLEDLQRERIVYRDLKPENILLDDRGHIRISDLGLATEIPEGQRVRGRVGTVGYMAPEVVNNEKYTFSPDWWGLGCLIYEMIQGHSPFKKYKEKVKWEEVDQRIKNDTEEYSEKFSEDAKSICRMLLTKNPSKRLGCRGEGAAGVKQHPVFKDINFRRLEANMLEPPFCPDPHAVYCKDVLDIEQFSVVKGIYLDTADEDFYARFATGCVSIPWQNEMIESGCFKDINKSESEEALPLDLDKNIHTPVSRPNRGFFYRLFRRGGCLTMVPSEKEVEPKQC
Sequence of SGK2 (Q9HBY8 whole entry): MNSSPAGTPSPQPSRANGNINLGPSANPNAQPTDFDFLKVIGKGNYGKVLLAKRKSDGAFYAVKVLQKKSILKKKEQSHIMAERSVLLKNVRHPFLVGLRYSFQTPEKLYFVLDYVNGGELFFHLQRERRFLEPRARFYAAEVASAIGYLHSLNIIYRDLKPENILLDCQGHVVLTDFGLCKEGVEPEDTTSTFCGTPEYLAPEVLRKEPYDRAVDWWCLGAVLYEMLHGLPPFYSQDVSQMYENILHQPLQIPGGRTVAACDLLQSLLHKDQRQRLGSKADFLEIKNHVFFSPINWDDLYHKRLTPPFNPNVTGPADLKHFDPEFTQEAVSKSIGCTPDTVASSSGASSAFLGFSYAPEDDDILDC
Sequence of MIP3a (P78556 27-96): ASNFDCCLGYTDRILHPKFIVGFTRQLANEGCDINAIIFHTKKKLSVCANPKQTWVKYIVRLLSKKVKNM

Inhibition of CD4+ T-cell migration towards MIP3a (MIP3a): completely inhibited
% Inhibition (CLK4): 73%
% Inhibition (KIT T670E): 51%
% Inhibition (STK17A (DRAK1)): 48%
% Inhibition (STK38 (NDR)): 41%
% Inhibition (DYRK2): 62%
% Inhibition (TTK): 52%
% Inhibition (MAPK10 (JNK3)): 49%
% Inhibition (CDC7/DBF4): 53%
% Inhibition (CDK11 (Inactive)): 57%
% Inhibition (NUAK2): 89%
% Inhibition (MAP4K2 (GCK)): 48%
% Inhibition (KIT D820E): 42%
% Inhibition (MAP4K4 (HGK)): 40%
% Inhibition (SGK2): 43%
% Inhibition (DAPK2): 65%
% Inhibition (MYLK (MLCK)): 63%
% Inhibition (MAP4K1 (HPK1)): 45%
% Inhibition (MELK; BKT300 at 78% purity): 41%
Affinity of BKT300 to the kinase (MELK; based on the kinase screening assay summarized in Table 2, relatively low): few tens
% Inhibition (STK17B (DRAK2)): 107%
% Inhibition (EPHA8): 50%
% Inhibition (DYRK3): 47%
% Inhibition (MLCK (MLCK2)): 58%
% Inhibition (GRK5): 65%
% Inhibition (ACVRL1 (ALK1)): 47%
% Inhibition (GRK4): 63%
% Inhibition (TGFBR2): 43%
% Inhibition (CDK1/cyclin A2): 45%
Compound: CCCCCc1cc2cc(O)cc(Oc3c(O)cc(O)cc3CCCCC)c2c(=O)o1 [BKT300]
